Measured values from patent publication US6476034B2, “Antiviral azaindole derivatives” (priority 2000, dated 2002).

Test system: single-round infectious HIV-1 reporter virus
Test: microbe, parasite or virus in culture
Type: cell-based
Settings: for EC50: Human immunodeficiency virus 1, HeLa-CD4/CCR5; for inhibition at 10 µM: Human immunodeficiency virus 1, HeLa-CD4/CCR5, 72 h, read-out: Average % inhibition at or <10 μM

## COc1nccc2c(C(=O)C(=O)N3CCN(C(=O)c4ccccc4)C[C@H]3C)c[nH]c12 [Compound 5v, (R)-N-(benzoyl)-3-Methyl-N′-[(7-Methoxy-6-azaindol-3-yl)-oxoacetyl]-piperazine]
  EC50: < 1000 nM
  inhibition at 10 µM: > 99%

## COc1ncc(OC)c2c(C(=O)C(=O)N3CCN(C(=O)c4ccccc4)CC3)c[nH]c12 [Compound 5ao, N-(benzoyl)-N′-[(4,7-dimethoxy-6-azaindol-3-yl)-oxoacetyl]piperazine]
  EC50: < 1000 nM

## O=C(C(=O)N1CCN(C(=O)c2ccccc2)CC1)c1c[nH]c2ncccc12 [Compound 5d, N-(benzoyl)-N′-[(7-azaindol-3-yl)-oxoacetyl]-piperazine]
  EC50: < 1000 nM
  inhibition at 10 µM: 98%

## C[C@@H]1CN(C(=O)c2ccccc2)CCN1C(=O)C(=O)c1c[nH]c2nc(F)cc([N+](=O)[O-])c12 [Compound 10a, (R)-N-(benzoyl)-3-methyl-N′-[(4-nitro-6-fluoro-7-azaindol-3-yl)-oxoacetyl]-piperazine]
  EC50: < 1000 nM
  inhibition at 10 µM: > 99%

## CC1CN(C(=O)c2ccccc2)CCN1C(=O)C(=O)c1c[nH]c2cnccc12 (stereo not shown) [Compound 5q, N-(benzoyl)-3-Methyl-N′[(6-azaindol-3-yl)-oxoacetyl]-piperazine]
  EC50: < 1000 nM
  inhibition at 10 µM: 97%

## C[C@@H]1CN(C(=O)c2ccccc2)CCN1C(=O)C(=O)c1c[nH]c2ccncc12 [Compound 5m, (R)-N-(benzoyl)-3-methyl-N′-[(5-azaindol-3-yl)-oxoacetyl]-piperazine]
  EC50: > 500 nM
  inhibition at 10 µM: 60%

## COc1ccnc2c(C(=O)C(=O)N3CCN(C(=O)c4ccccc4)C[C@H]3C)cn(C)c12 [Compound 5z, (R)-N-(benzoyl)-3-Methyl-N′-[(7-Methoxy-1-methyl-4-azaindol-3-yl)-oxoacetyl]-piperazine]
  EC50: < 1000 nM
  inhibition at 10 µM: 97%

## CC1CN(C(=O)c2ccccc2)CCN1C(=O)C(=O)c1c[nH]c2ncccc12 (stereo not shown) [Compound 5ai, N-(benzoyl)-3-methyl-N′-[(7-azaindol-3-yl)-oxoacetyl]-piperazine]
  EC50: < 1000 nM

## Cc1ccnc2c(C(=O)C(=O)N3CCN(C(=O)c4ccccc4)C[C@H]3C)c[nH]c12 [Compound 5x, (R)-N-(benzoyl)-3-Methyl-N′-[(7-Methyl-4-azaindol-3-yl)-oxoacetyl]-piperazine]
  EC50: < 1000 nM
  inhibition at 10 µM: 99%
